From the NIST ThermoML archive (doi:10.1016/j.jct.2018.08.013)
“And” between values parts separate entries of the source, which are not always exact repeats. Identical values can stand only once.

Key:
[1] = xn = mol fraction of the nth substance listed; details: 298 K; 100 kPa; Crystal of intercomponent compound 1; X-ray diffraction; x2 = 0.451
[2] = specific heat capacity at constant pressure; xn = mol fraction of the nth substance listed; details: 100 kPa, Crystal of intercomponent compound 1, x2 = 0.451

[S] [sulfur] + [In]
Details	mass density [kg/m3]
[1]	5211

[2]
Details	specific heat capacity
14.16 K, relaxation calorimetry	10.46 J/K/kg
14.18 K, relaxation calorimetry	10.51 J/K/kg
16.17 K, relaxation calorimetry	15.52 J/K/kg
16.18 K, relaxation calorimetry	15.54 J/K/kg
16.19 K, relaxation calorimetry	15.59 J/K/kg
18.2 K, relaxation calorimetry	21.32 J/K/kg and 21.36 J/K/kg
20.21 K, relaxation calorimetry	27.47 J/K/kg and 27.51 J/K/kg
20.22 K, relaxation calorimetry	27.57 J/K/kg
22.23 K, relaxation calorimetry	33.81 J/K/kg and 33.8 J/K/kg
22.24 K, relaxation calorimetry	33.85 J/K/kg
24.25 K, relaxation calorimetry	40.26 J/K/kg and 40.2 J/K/kg
24.26 K, relaxation calorimetry	40.28 J/K/kg
26.26 K, relaxation calorimetry	46.66 J/K/kg and 46.68 J/K/kg
26.27 K, relaxation calorimetry	46.58 J/K/kg
28.28 K, relaxation calorimetry	52.75 J/K/kg and 52.77 J/K/kg and 52.81 J/K/kg
30.3 K, relaxation calorimetry	58.62 J/K/kg and 58.63 J/K/kg
30.31 K, relaxation calorimetry	58.71 J/K/kg
35.34 K, relaxation calorimetry	72.92 J/K/kg
35.36 K, relaxation calorimetry	72.92 J/K/kg
40.38 K, relaxation calorimetry	85.85 J/K/kg
45.42 K, relaxation calorimetry	97.7 J/K/kg
45.43 K, relaxation calorimetry	97.63 J/K/kg
45.44 K, relaxation calorimetry	97.63 J/K/kg
50.46 K, relaxation calorimetry	109.27 J/K/kg and 109.41 J/K/kg
50.48 K, relaxation calorimetry	109.27 J/K/kg
55.5 K, relaxation calorimetry	120.03 J/K/kg and 120.1 J/K/kg
55.51 K, relaxation calorimetry	120.17 J/K/kg
60.54 K, relaxation calorimetry	130.38 J/K/kg and 130.24 J/K/kg
65.58 K, relaxation calorimetry	140.8 J/K/kg and 140.86 J/K/kg
65.59 K, relaxation calorimetry	140.8 J/K/kg
70.62 K, relaxation calorimetry	151.01 J/K/kg and 151.08 J/K/kg
70.64 K, relaxation calorimetry	150.94 J/K/kg
75.66 K, relaxation calorimetry	160.88 J/K/kg and 160.47 J/K/kg and 160.68 J/K/kg
80.69 K, relaxation calorimetry	170.82 J/K/kg and 170.68 J/K/kg and 170.62 J/K/kg
85.73 K, relaxation calorimetry	180.22 J/K/kg and 180.15 J/K/kg and 179.74 J/K/kg
90.75 K, relaxation calorimetry	189.47 J/K/kg
90.77 K, relaxation calorimetry	189.13 J/K/kg and 188.59 J/K/kg
95.78 K, relaxation calorimetry	197.58 J/K/kg
95.79 K, relaxation calorimetry	197.17 J/K/kg and 197.1 J/K/kg
100.82 K, relaxation calorimetry	204.93 J/K/kg
100.83 K, relaxation calorimetry	204.59 J/K/kg
100.92 K, relaxation calorimetry	204.18 J/K/kg
105.86 K, relaxation calorimetry	212.83 J/K/kg
105.87 K, relaxation calorimetry	213.24 J/K/kg and 212.76 J/K/kg
113.82 K, relaxation calorimetry	223.18 J/K/kg and 223.24 J/K/kg and 222.9 J/K/kg
121.72 K, relaxation calorimetry	233.18 J/K/kg
121.75 K, relaxation calorimetry	233.18 J/K/kg
121.76 K, relaxation calorimetry	233.12 J/K/kg
129.68 K, relaxation calorimetry	241.97 J/K/kg
129.69 K, relaxation calorimetry	242.31 J/K/kg and 241.97 J/K/kg
137.6 K, relaxation calorimetry	249.86 J/K/kg
137.62 K, relaxation calorimetry	250 J/K/kg
145.51 K, relaxation calorimetry	257.22 J/K/kg
145.55 K, relaxation calorimetry	257.15 J/K/kg and 256.88 J/K/kg
153.44 K, relaxation calorimetry	264.09 J/K/kg
153.45 K, relaxation calorimetry	264.23 J/K/kg
153.46 K, relaxation calorimetry	264.03 J/K/kg
161.36 K, relaxation calorimetry	269.88 J/K/kg
161.38 K, relaxation calorimetry	270.02 J/K/kg
161.39 K, relaxation calorimetry	270.08 J/K/kg
169.28 K, relaxation calorimetry	275.6 J/K/kg
169.31 K, relaxation calorimetry	275.74 J/K/kg
169.32 K, relaxation calorimetry	275.46 J/K/kg
177.2 K, relaxation calorimetry	280.36 J/K/kg
177.24 K, relaxation calorimetry	280.23 J/K/kg and 280.3 J/K/kg
185.14 K, relaxation calorimetry	284.52 J/K/kg
185.17 K, relaxation calorimetry	284.79 J/K/kg and 284.86 J/K/kg
193.05 K, relaxation calorimetry	288.4 J/K/kg
193.08 K, relaxation calorimetry	288.74 J/K/kg
193.09 K, relaxation calorimetry	289.08 J/K/kg
200.97 K, relaxation calorimetry	292.69 J/K/kg
201 K, relaxation calorimetry	292.89 J/K/kg
201.01 K, relaxation calorimetry	293.03 J/K/kg
208.88 K, relaxation calorimetry	296.02 J/K/kg
208.92 K, relaxation calorimetry	295.96 J/K/kg and 296.16 J/K/kg
216.78 K, relaxation calorimetry	299.56 J/K/kg
216.82 K, relaxation calorimetry	299.7 J/K/kg
216.83 K, relaxation calorimetry	299.7 J/K/kg
224.7 K, relaxation calorimetry	302.56 J/K/kg
224.74 K, relaxation calorimetry	303.1 J/K/kg
224.75 K, relaxation calorimetry	302.7 J/K/kg
232.6 K, relaxation calorimetry	305.01 J/K/kg
232.66 K, relaxation calorimetry	305.01 J/K/kg and 305.22 J/K/kg
240.51 K, relaxation calorimetry	306.71 J/K/kg
240.54 K, relaxation calorimetry	307.67 J/K/kg and 307.53 J/K/kg
248.4 K, relaxation calorimetry	309.84 J/K/kg
248.45 K, relaxation calorimetry	310.12 J/K/kg
248.48 K, relaxation calorimetry	308.89 J/K/kg
256.34 K, relaxation calorimetry	310.59 J/K/kg
256.4 K, relaxation calorimetry	310.73 J/K/kg and 310.66 J/K/kg
262.24 K, Extra sensitive DSC	315.9 J/K/kg
264.24 K, relaxation calorimetry	312.43 J/K/kg
264.3 K, relaxation calorimetry	312.98 J/K/kg
264.31 K, relaxation calorimetry	312.98 J/K/kg
265 K, Extra sensitive DSC	316.72 J/K/kg
270 K, Extra sensitive DSC	317.74 J/K/kg
275 K, Extra sensitive DSC	319.31 J/K/kg
280 K, Extra sensitive DSC	320.94 J/K/kg
285 K, Extra sensitive DSC	322.44 J/K/kg
290 K, Extra sensitive DSC	323.94 J/K/kg
295 K, Extra sensitive DSC	325.44 J/K/kg
300 K, Extra sensitive DSC	326.59 J/K/kg
305 K, Extra sensitive DSC	328.02 J/K/kg
310 K, Extra sensitive DSC	329.18 J/K/kg
315 K, Extra sensitive DSC	329.93 J/K/kg
320 K, Extra sensitive DSC	330.54 J/K/kg
325 K, Extra sensitive DSC	331.29 J/K/kg
330 K, Extra sensitive DSC	332.31 J/K/kg
335 K, Extra sensitive DSC	333.13 J/K/kg
337.86 K, Extra sensitive DSC	333.4 J/K/kg
340.38 K, Extra sensitive DSC	332.92 J/K/kg
343.85 K, Extra sensitive DSC	333.47 J/K/kg
345.58 K, Extra sensitive DSC	333.74 J/K/kg
348.19 K, Extra sensitive DSC	335.31 J/K/kg
350.79 K, Extra sensitive DSC	335.51 J/K/kg
353.39 K, Extra sensitive DSC	335.99 J/K/kg
355.13 K, Extra sensitive DSC	336.53 J/K/kg
356 K, Extra sensitive DSC	335.78 J/K/kg
358.6 K, Extra sensitive DSC	336.4 J/K/kg
